Laboratory results from US5449667A, “Amidothiophosphate derivative and insecticide, nematocide and acaricide containing the same as active ingredient” (priority 1993, dated 1995).

Columns and labels:
Blattella germanica = experiment: Insecticidal activity against Blattella germanica; format: in vivo; settings: 24 h, 0.7 ml of 500 ppm on filter paper, ten male cockroaches, after one day
Procedure: Biological Test 3 Insecticidal Avtivity Against Blattella germanica
(§1) Filter paper of 5.5 cm in diameter was laid in the bottom of a polyethylene cup (diameter: 5.5 cm). After 0.7 ml of a 500 ppm aqueous solution obtained by diluting each emulsifiable concentrate prepared from each of the present compounds according to the formulation example 1 was dropped on the filter paper and approximately 30 mg of sucrose was uniformly scattered and put on the filter paper as bait, ten male cockroaches (Blattella germanica) were left in the cup with a cover. After one day, the mortality was examined for the cockroaches.

Tetranychus cinnabarinus = experiment: Activity against Tetranychus cinnabarinus; format: in vivo; design: key: -: substantially no damage; +: little damage; ++: heavy damage; settings: 500 ppm, 15 ml spray plus 2 ml soil injection, kidney bean, after eight days
Procedure: Biological Test 8 Activity Against Tetranychus cinnabarinus
Ten male mites (Tetranychus cinnabarinus) per leaf were placed on a pot-planted kidney bean (Phasseolus vulgaris: seven days after sowing) and kept in a thermostatic chamber. After six days, 15 ml of a 500 ppm aqueous solution obtained by diluting each emulsifiable concentrate of each of the present compounds according to the formulation example 1 was sprayed in a pot simultaneously with injection of 2 ml of the solution into soil. After eight days, damage to the plant by Tetranychus cinnabarinus was evaluated according to the following criteria:
-: substantially no damage

[1] = tested on: larvae of Culex pipiens pallens; experiment: Insecticidal activity against larvae of Culex pipiens pallens; format: in vivo; settings: 3.5 ppm active ingredient in water, twenty last-instar larvae, after one day
Procedure: Biological Test 7 Insecticidal Activity Against Larvae of Culex pipiens pallens
Each of emulsifiable concentrates prepared from each of the present compounds according to the formulation example 1 was diluted with water, and 0.7 ml of the diluted solution was added to 100 ml of ion-exchanged water (concentration of active ingredient: 3.5 ppm). Twenty last-instar larvae of Culex pipiens pallens were left in the water. After one day, the activity was evaluated according to the following criteria:
A: Mortality not less than 90%
B: Mortality not less than 10% but less than 90%
C: Mortality less than 10%

root-knot nematodes = experiment: Activity against root-knot nematodes; format: in vivo; design: key: -: substantially no root knots; +: several to ten odds root knots; ++: larger number of root knots (heavier damage than +); settings: 25 ppm active ingredient in soil, tomato root, after four weeks
Procedure: Biological Test 6 Activity Against Root-knot Nematodes
One ml of a 500 ppm aqueous solution of each of the present compounds obtained by diluting each emulsifiable concentrate prepared from each of the present compounds according to the formulation example 1 was mixed with 19 g of soil contaminated with root-knot nematodes (concentration of active ingredient in soil: 25 ppm). After the soil was kept at 27° C. for 24 hours, the root of a tomato plant (approximately two weeks after sprouting) in a cup was covered with the soil and some water was given to the plant. After four weeks, damage to the root of the tomato plant was evaluated according to the following criteria:
-: substantially no root knots
+: several to ten odds root knots
++: larger number of root knots (heavier damage than +)

[2] = tested on: larvae of Diabrotica undecimpunctata; experiment: Insecticidal activity against larvae of Diabrotica undecimpunctata; format: in vivo; settings: 1 ml of 50 ppm on filter paper, approximately thirty eggs, after eight days
Procedure: Biological Text 5 Insecticidal Activity Against Larvae of Diabrotica undecimpunctata
Filter paper of 5.5 cm in diameter was laid in the bottom of a polyethylene cup (diameter: 5.5 cm). After 1 ml of a 50 ppm aqueous solution obtained by diluting each of the emulsifiable concentrate prepared from each of the present compounds according to the formulation example 1 was dropped on the filter paper and one sprouting corn crop was placed as bait on the paper, approximately thirty eggs of Diabrotica undecimpunctata were left on the filter paper. After eight days, the rate of hatched larvae was examined. The activity were evaluated according to the following criteria:
B: Mortality not less than 90% but less than 100%
C: Mortality less than 90%

[3] = tested on: larvae of Spodoptera litura; experiment: Insecticidal activity against larvae of Spodoptera litura; format: in vivo; settings: 144 h, 4-instar larvae, artificial bait, after six days
Procedure: Biological Test 1 Insecticidal Activity Against Larvae of Spodoptera litura
Emulsifiable concentrates were prepared for each of the present compounds according to the formulation example 1. Thirteen grams of artificial bait for Spodoptera litura were placed in a polyethylene cup (diameter: 11 cm) and impregnated with 2 ml of the emulsifiable concentrate diluted with water (500 ppm). Ten 4-instar larvae of Spodoptera litura were put in the polyethylene cup. After six days, the mortality of the larvae was examined.

Musca domestica = experiment: Insecticidal activity against Musca domestica; format: in vivo; settings: 24 h, 0.7 ml of 500 ppm on filter paper, ten female house flies, after one day
Procedure: Biological Test 4 Insecticidal Activity Against Musca domestica
as §1, with “scattered,” for “scattered”, “female house flies (Musca domestica)” for “male cockroaches (Blattella germanica)”, “flies.” for “cockroaches.”

[4] = tested on: larvae of Nilaparvata lugens; experiment: Insecticidal activity against larvae of Nilaparvata lugens; format: in vivo; settings: 500 ppm aqueous solution, rice stalk dip, approximately 30 larvae, after six days
Procedure: Biological Test 2 Insecticidal Activity Against Larvae of Nilaparvata lugens
A stalk of a rice plant was dipped for one minute in a 500 ppm aqueous solution obtained by diluting each emulsifiable concentrate prepared from each of the present compounds according to the formulation example 1 and then air-dried. The rice plant stalk was placed in a polyethylene cup (diameter: 5.5 cm) where filter paper (diameter: 5.5 cm) impregnated with 1 ml of water was put. Approximately 30 larvae of Nilaparvata lugens were put in the polyethylene cup. After six days, the activity was evaluated according to the following criteria:
B: the number of the living larvae is not greater than 5
C: the number of the living larvae is 6 or more

[5] = Acute toxicity in oral application to mice; settings: mouse, in vivo, 5 mg/kg, ICR male mice, after seven days
Procedure: Biological Test 9 Acute Toxicity in Oral Application to Mice
Each of the present compound was diluted with corn oil to a predetermined concentration. After subjecting the mice to a twenty-hour fasting, 0.1 ml of the diluted solution per 10 g weight was forcibly applied into the stomach of each ICR male 6-week old mouse (weight: 24 to 31 g). The mice were given food and water four hours after the application and thereafter regularly fed and watered, and kept in a cage. After seven days, the mortality was examined for the mice (4 mice/group).

| Compound | mortality at 500 ppm (Blattella germanica) [%] | Activity (Tetranychus cinnabarinus) | Activity [1] | Activity (root-knot nematodes) | Activity [2] | mortality at 500 ppm [3] [%] | mortality at 500 ppm (Musca domestica) [%] | Activity [4] | mortality at 168 h [5] [%] |
| --- | --- | --- | --- | --- | --- | --- | --- | --- | --- |
| CCCSP(=O)(OCC)N(CC#N)C(=O)OCC (stereo not drawn) [Compound 8] | 100 | - | A (Mortality not less than 90%) | - | A (Mortality 100%) | 100 | 100 | A (no living larvae) |  |
| CCCSC(=O)N(CC#N)P(=O)(OCC)SC(C)CC (stereo not drawn) [Compound 12] | 100 | - | A (Mortality not less than 90%) | - | A (Mortality 100%) | 100 | 100 |  |  |
| CCOP(=O)(SC(C)CC)N(CC#N)C(=O)OCC(C)C (stereo not drawn) [Compound 18] | 100 | - | A (Mortality not less than 90%) | - | A (Mortality 100%) | 100 | 100 | A (no living larvae) |  |
| CCCSP(=O)(OC)N(CCC#N)C(=O)SC (stereo not drawn) [Compound 5] |  | - |  | - | A (Mortality 100%) | 100 | 100 |  |  |
| CCCSP(=O)(OC)N(CC#N)C(=O)OC (stereo not drawn) [Compound 1] | 100 | - | A (Mortality not less than 90%) | - | A (Mortality 100%) | 100 | 100 | A (no living larvae) |  |
| CCOP(=O)(SC(C)CC)N(CC#N)C(=O)SC (stereo not drawn) [Compound 11] | 100 | - | A (Mortality not less than 90%) | - | A (Mortality 100%) | 100 | 100 |  |  |
| CCCSP(=O)(OC)N(CC#N)C(=O)OCC (stereo not drawn) [Compound 2] | 100 | - | A (Mortality not less than 90%) | - | A (Mortality 100%) | 100 | 100 | A (no living larvae) |  |
| CCCSP(=O)(OC)N(CC#N)C(=O)OC(C)C (stereo not drawn) [Compound 3] | 100 | - | A (Mortality not less than 90%) | - | A (Mortality 100%) | 100 | 100 | A (no living larvae) |  |
| CCOP(=O)(SC(C)CC)N(CC#N)C(=O)c1ccccc1 (stereo not drawn) [Compound 16] | 100 | - | A (Mortality not less than 90%) | - | A (Mortality 100%) | 100 | 100 | A (no living larvae) |  |
| CCCSP(=O)(OCC)N(CC#N)C(=O)OC (stereo not drawn) [Compound 7] | 100 | - | A (Mortality not less than 90%) | - | A (Mortality 100%) | 100 | 100 | A (no living larvae) |  |
| CCC(C)SP(=O)(OC)N(CC#N)C(=O)OC (stereo not drawn) [Compound 4] | 100 | - | A (Mortality not less than 90%) | - | A (Mortality 100%) | 100 | 100 | A (no living larvae) |  |
| CCOC(=O)N(CC#N)P(=O)(OC)SC(C)CC (stereo not drawn) [Compound 6] | 100 | - | A (Mortality not less than 90%) | - | A (Mortality 100%) | 100 | 100 | A (no living larvae) |  |
| CCOP(=O)(SC(C)CC)N(CC#N)C(=O)Oc1ccccc1 (stereo not drawn) [Compound 14, O-ethyl S-sec-butyl N-cyanomethyl N-phenoxycarbonyl phosphoroamidothiolate] | 100 | - | A (Mortality not less than 90%) | - | A (Mortality 100%) | 100 | 100 | A (no living larvae) |  |
| CCC(C)SP(=O)(OC)N(CC#N)C(=O)Oc1ccccc1 (stereo not drawn) [Compound 15] |  | - |  |  |  |  |  |  |  |
| CCOC(=O)N(CC#N)P(=O)(OCC)SC(C)CC (stereo not drawn) [Compound 10] | 100 | - | A (Mortality not less than 90%) | - | A (Mortality 100%) | 100 | 100 |  |  |
| CCCSC(=O)N(CCC#N)P(=O)(OCC)SC(C)CC (stereo not drawn) [Compound 19] | 100 | - | A (Mortality not less than 90%) | - | A (Mortality 100%) |  | 100 |  |  |
| CCOP(=O)(SC(C)CC)N(CC#N)C(=O)OC(C)C (stereo not drawn) [Compound 17] | 100 | - | A (Mortality not less than 90%) | - | A (Mortality 100%) | 100 | 100 | A (no living larvae) |  |
| CCC(C)SP(=O)(NC)OC (stereo not drawn) [A, reference compound] |  |  |  |  |  |  |  |  | 100 |
| CCOC(=O)N(CCC#N)P(=O)(OCC)SC(C)CC (stereo not drawn) [Compound 20] | 100 | - | A (Mortality not less than 90%) | - | A (Mortality 100%) | 100 | 100 |  |  |
